According to US20220184034A1, “METHODS FOR TREATING CUTANEOUS METASTATIC CANCERS” (Adgero Biopharmaceuticals Holdings, Inc., priority 2020, published 2022):

Test system: cutaneous lesions arising from either basal cell cancer, squamous cell cancer or CMBC
Experiment: Phase 1/2 dose escalation study of SnET2 PDT: acute lesion reaction grade at Week 1
Assay type: in vivo, patients
Conditions: Week 1 post-treatment
Procedure: Two Phase 1/2 studies established the clinical dosimetry. The first study was a dose escalation study that enrolled a total of 22 patients with cutaneous lesions arising from either basal cell cancer, squamous cell cancer or CMBC. A total of 213 lesions were treated using photosensitizer SnET2) doses ranging from 0.1-1.2 mg/kg, light doses of 100, 150 or 200 J/cm^2 and treatment timepoints of 24, 48, or 72 hours post-infusion. Two key measures were utilized in these studies, lesion reaction and lesion response. Lesion reaction was an acute characterization of the treatment effect that was performed out to 1 week post-treatment according to the following scale: • Grade 0=No visual erythema or edema • Grade 1=Faint erythema and/or slight edema • Grade 2=Moderate erythema and edema • Grade 3=Severe discoloration, edema, sloughing or eschar
A further analysis was undertaken to explore the relationship between the acute lesion reaction and the lesion response. […] Following are the results from patients who were scored for lesion reaction at Week 1 post-treatment and who received a drug dose of 0.8 mg/kg or higher. […] For the 0.8 mg/kg cases, only 5 of the 37 lesions (14%) received the highest lesion reaction score. In the case of the 1.2 mg/kg dose group, the percentage of lesions with the maximum lesion reaction score, 13 of 22 (59%), was substantially higher.

Substance: tin ethyl etiopurpurin [SnET2]
- % with Max Rx Score at Week 1 (0.8 mg/kg, 100 J/cm^2): 0%
- Total with Max Rx Score at Week 1 (0.8 mg/kg, 100 J/cm^2): 0
- % with Max Rx Score at Week 1 (0.8 mg/kg, 150 J/cm^2): 7%
- Total with Max Rx Score at Week 1 (0.8 mg/kg, 150 J/cm^2): 1
- % with Max Rx Score at Week 1 (0.8 mg/kg, 200 J/cm^2): 27%
- Total with Max Rx Score at Week 1 (0.8 mg/kg, 200 J/cm^2): 4
- lesions with the highest lesion reaction score (0.8 mg/kg): 5 of the 37
- percentage of lesions with the highest lesion reaction score (0.8 mg/kg): 14%
- % with Max Rx Score at Week 1 (1.0 mg/kg, 100 J/cm^2): 0%
- Total with Max Rx Score at Week 1 (1.0 mg/kg, 100 J/cm^2): 0
- % with Max Rx Score at Week 1 (1.0 mg/kg, 150 J/cm^2): 0%
- Total with Max Rx Score at Week 1 (1.0 mg/kg, 150 J/cm^2): 0
- % with Max Rx Score at Week 1 (1.0 mg/kg, 200 J/cm^2): 0%
- Total with Max Rx Score at Week 1 (1.0 mg/kg, 200 J/cm^2): 0
- % with Max Rx Score at Week 1 (1.2 mg/kg, 100 J/cm^2): 33%
- Total with Max Rx Score at Week 1 (1.2 mg/kg, 100 J/cm^2): 2
- % with Max Rx Score at Week 1 (1.2 mg/kg, 150 J/cm^2): 78%
- Total with Max Rx Score at Week 1 (1.2 mg/kg, 150 J/cm^2): 7
- % with Max Rx Score at Week 1 (1.2 mg/kg, 200 J/cm^2): 57%
- Total with Max Rx Score at Week 1 (1.2 mg/kg, 200 J/cm^2): 4
- lesions with the maximum lesion reaction score (1.2 mg/kg): 13 of 22
- percentage of lesions with the maximum lesion reaction score (1.2 mg/kg): 59%
